{
  "source": "patent US20050009023A1",
  "about": "“Glucocorticoid-induced receptor and methods of use” (priority 2001, published 2005)",
  "key": {"[1]": {"test_system": "GIR mRNA in rat prefrontal cortex", "assay": "GIR mRNA expression following chronic amphetamine administration (competitive RT-PCR)", "format": "in vivo", "settings": "for GIR mRNA levels in prefrontal cortex: mean±SE, n=6", "procedure": "(§1) GIR mRNA Expression Following Chronic Amphetamine Administration. Male Sprague-Dawley rats (200-250g, Harlan Sprague-Dawley Laboratories, Indianapolis, Ind.) received subcutaneous injection of either d-amphetamine (AMPH) (2.5 mg/kg) or saline (1 ml/kg) in their home cages once daily for 5 consecutive days (days 1-5). On day 9, four days following completion of this pre-treatment regimen, all animals were transferred to Residential Activity Chambers (RACs) (Segal and Kuczenski, 1987; Richtand et al., 2000), and received saline injection (1 ml/kg) on days 10 and 11 to measure conditioned response to injection. On day 12, seven days following completion of the pre-treatment regimen, all rats received AMPH (2.5 mg/kg) and locomotor activity was determined by photobeam monitoring for 150 minutes following injection. Locomotor activity is expressed as crossovers, defined as the number of times the animal crosses into any of four quadrants subdividing the enclosure. All animals were sacrificed by decapitation 4 hours following injection and total RNA was extracted from prefrontal cortex for determination of GIR mRNA expression. In a separate experiment, rats were injected with either AMPH (2.5 mg/kg) or saline (1 ml/kg) for 5 consecutive days, and sacrificed by decapitation 7 days after the last injection without the final AMPH challenge. Thus, four groups were generated: SAL-AMPH (Saline×5 days and AMPH at challenge), AMPH-AMPH (AMPH×5 days and AMPH at challenge), SAL (Saline×5 days), and AMPH (AMPH×5 days).\nConstruction of Competitor DNA and Quantitative RT-PCR. To construct the mutant template for competitive PCR, a 20 bp GIR sequence (5′-[…]-3′, 1213-1232 bp in FIG. 1; SEQ ID NO: 18) was incorporated into the upstream primer so that a rat GIR cDNA fragment was amplified by RT-PCR using the chimeric upstream primer (5′-[…]-3′, 1213-1232 bp in FIG. 1; SEQ ID NO:19) and the downstream primer (5′-CGGCCACAGTGGGTTCCAC-3′, 1575-1557 in FIG. 1; SEQ ID NO:13). The 262 bp PCR product was subcloned into pGEM-T vector (Promega, Madison, Wis.). The plasmid DNA was purified (Qiagen, Valencia, Calif.) and insert was verified by DNA sequencing. A fragment containing the mutant rat GIR template (262 bp) was released by EcoRI digestion and purified by agarose gel electrophoresis. DNA concentration was determined spectrophotometrically. Serial dilutions of mutant template were prepared.\nThe amount of GIR mRNA was quantitated by competitive RT-PCR as described previously (Miao et al., 2000). Briefly, reverse transcription was performed with 2 μg of total RNA using a non-specific random hexamer primer (Promega, Madsion, Wis.). One μl of first strand cDNA was mixed with known amounts of linearized competitor DNA ranging from […], and subjected to co-amplification with GIR-specific primers (5′-[…]-3′, 1213-1232 bp, SEQ ID NO:IS; and 5′-CGGCCACAGTGGGTTCCAC-3′, 1575-1557 bp in FIG. 1, SEQ ID NO:14). PCR was run for 30 cycles of 94° C./1 min, 60° C./2 min 72° C./3 min, and the PCR products were electrophoresed on 1.2% agarose gel. The intensities of bands, corresponding to the products from the GIR mRNA and the competitor with 101-bp size difference, was analyzed densitometrically by BioImage system combined with NIH software (Bio-Rad, Hercules, Calif.). The intensity ratios between the two bands were logarithmically plotted against the known initial input of competitor template, and the amount of GIR mRNA in the total RNA samples was calculated by linear regression. […]"}, "[2]": {"test_system": "Male Sprague-Dawley rats", "assay": "Locomotor activity (crossovers) after amphetamine challenge, behavioral sensitization", "format": "in vivo, rat", "settings": "AMPH 2.5 mg/kg challenge, mean±SE", "procedure": "as §1"}},
  "data": [
    {"smiles": "C[C@H](N)Cc1ccccc1", "note": "[amphetamine, D-Amphetamine]", "values": [
      {"measurement": "GIR mRNA levels in prefrontal cortex, increase of AMPH-AMPH rats compared to SAL-AMPH rats", "setting": "[1]; AMPH 2.5 mg/kg s.c. x5 days, AMPH challenge 7 days after, sacrificed 4 hours after injection, n=6, P<0.05", "value": 1.38, "unit": "fold"},
      {"measurement": "GIR mRNA levels in prefrontal cortex, increase of AMPH rats compared to SAL rats", "setting": "[1]; AMPH 2.5 mg/kg x5 days, no challenge injection, 7 days after last injection, n=6, P<0.05", "value": 1.70, "unit": "fold"},
      {"measurement": "GIR mRNA levels in prefrontal cortex", "setting": "[1]; AMPH rats (AMPH x5 days, no challenge), 7 days after amphetamine ceased", "value": "3.65±0.22", "unit": "fg/100 ng total RNA"},
      {"measurement": "GIR mRNA levels in prefrontal cortex", "setting": "[1]; AMPH-AMPH rats (AMPH x5 days and AMPH at challenge), 2.5 mg/kg s.c.", "value": "2.97(±0.26 fg/100 ng total RNA"},
      {"measurement": "GIR mRNA levels in prefrontal cortex", "setting": "[1]; SAL-AMPH rats (saline x5 days and AMPH 2.5 mg/kg at challenge)", "value": "2.27(±0.22 fg/100 ng total RNA"},
      {"measurement": "locomotion at 12-60 min post-injection (focused stereotypy phase)", "setting": "[2]; AMPH-AMPH rats, n=6, P<0.0001", "value": "50.20±12.63", "unit": "crossovers/12-60 min"},
      {"measurement": "locomotion at 60-150 min (post-stereotypy locomotion phase)", "setting": "[2]; AMPH-AMPH rats, n=6, P<0.05", "value": "496.67±70.28", "unit": "crossovers/60-150min"},
      {"measurement": "locomotion at 12-60 min post-injection (focused stereotypy phase)", "setting": "[2]; SAL-AMPH rats, n=6", "value": "286.00±27.57", "unit": "crossovers/12-60 min"},
      {"measurement": "locomotion at 60-150 min (post-stereotypy locomotion phase)", "setting": "[2]; SAL-AMPH rats, n=6", "value": "312.25±29.17", "unit": "crossovers/60-150min"}
    ]}
  ]
}
